From PMC8515607 (ACS Omega, 2021)
Where two headings read alike, the source gives them in different places.

Key:
LoVo/DX = test: cells; assay type: cell-based, human; conditions: for LoVo/DX RI: resistance index = IC50 LoVo/DX / IC50 LoVo; for LoVo/DX SI: selectivity index = IC50 BALB/3T3 / IC50 LoVo/DX
From the text: (§1) The A549 and MCF7 cell lines were purchased from the European Collection of Authenticated Cell Cultures (ECACC, Salisbury, U.K., 86012804 and 86012803). The LoVo cell line was purchased from the American Type Culture Collection (CCL-229, ATCC, Manassas, VA), and LoVo/DX by courtesy of Prof. E. Borowski (Technical University of Gdańsk, Gdańsk, Poland). The BALB/3T3 cell line was purchased from the American Type Culture Collection (CCL-163, ATCC, Manassas, VA). All of the cell lines are maintained in the Institute of Immunology and Experimental Therapy (IIET), Wroclaw, Poland.
(§2) A549 cells were cultured in a mixture of OptiMEM and Roswell Park Memorial Institute (RPMI) 1640 (1:1) medium (IIET, Wroclaw, Poland), supplemented with 10% fetal bovine serum HyClone (GE Healthcare) and 2 mM L-glutamine (Sigma-Aldrich, Germany). MCF7 cells were cultured in a mixture of Eagle’s medium (IIET, Wroclaw, Poland), supplemented with 10% fetal bovine serum, 2 mM L-glutamine, and insulin (Sigma-Aldrich, Germany). LoVo and LoVo/DX cells were cultured in F12K medium (Corning), supplemented with 10% fetal bovine serum HyClone (GE Healthcare) and 0.1 μg/mL doxorubicin (Accord) for LoVo/DX. BALB/3T3 fibroblasts were cultured in Dulbecco’s medium (Gibco), supplemented with 10% fetal bovine serum (GE Healthcare) and 2 mM L-glutamine (Sigma-Aldrich, Germany). All culture media contained antibiotics: 100 U/mL penicillin (Polfa-Tarchomin, Poland) and 0.1 mg/mL streptomycin (Sigma-Aldrich, Germany). All cell lines were cultured during entire experiment in humid atmosphere at 37 °C and 5% CO2.
(§3) All cell lines were exposed to each tested agent at different concentrations in the range 100–0.00001 μg/mL for 72 h. The cells were also exposed to the reference drug cisplatin (Teva Pharmaceuticals, Poland) and doxorubicin (Accord Healthcare Limited, U.K.). Additionally, all cell lines were exposed to dimethyl sulfoxide (DMSO) (solvent used for tested compounds) (POCh, Poland) at concentrations corresponding to those present in tested agents dilutions. After 72 h, sulforhodamine B (SRB) assay was performed.[57]
(§4) After 72 h of incubation with the tested compounds, the cells were fixed in situ by gently adding cold 50% trichloroacetic acid (TCA) (POCh, Poland) and were incubated at room temperature for 1 h. Then, the wells were washed four times with water and air-dried. Next, 0.1% solution of sulforhodamine B (Sigma-Aldrich, Germany) in 1% acetic acid (POCh, Poland) was added to each well and the plates were incubated at room temperature for 0.5 h. After incubation time, unbound dye was removed by washing plates four times with 1% acetic acid, whereas stain bound to cells was solubilized with 10 mM Tris base (Sigma-Aldrich, Germany). Absorbance of each solution was read at Synergy H4 Hybrid Multi-Mode Microplate Reader (BioTek Instruments) at the 540 nm wavelength.
(§5) IC50 values were calculated in Excel sheet using formulas adapted by Mateusz Psurski fromCheburator 0.4, Dmitry Nevozhay software (version 1.2.0 software by Dmitry Nevozhay, 2004–2014, http://www.cheburator.nevozhay.com, freely available) for each experiment.[58] Compounds at each concentration were tested in triplicate in a single experiment, and each experiment was repeated at least three times independently.

A549 = test: cells; assay type: cell-based, human; conditions: for A549 SI: selectivity index = IC50 BALB/3T3 / IC50 A549
From the text: as §1, §2, §3, §4, §5

LoVo = test: cells; assay type: cell-based, human; conditions: for IC50: Homo sapiens, LoVo, 72 h, read-out: LoVo IC50 (nM); for LoVo SI: selectivity index = IC50 BALB/3T3 / IC50 LoVo
From the text: as §1, §2, §3, §4, §5

MCF-7 = test: cells; assay type: cell-based, human; conditions: for IC50: Homo sapiens, MCF7, 72 h, read-out: MCF-7 IC50 (nM); for MCF-7 SI: selectivity index = IC50 BALB/3T3 / IC50 MCF-7
From the text: as §1, §2, §3, §4, §5

BALB/3T3 = test: In vitro antiproliferative activity, SRB assay, normal fibroblasts BALB/3T3; assay type: cell-based; conditions: Mus musculus, BALB/3T3, normal murine embryonic fibroblasts, 72 h, mean ± SD
From the text: as §1, §2, §3, §4, §5

[1] = tested on: A549, MCF-7, and LoVo cells; test: Antiproliferative activity, values quoted jointly for three tumor lines; assay type: cell-based, human; conditions: summary of Table 1; for IC50: Homo sapiens, read-out: IC50 against A549, MCF-7, and LoVo cells (span over the three lines)
From the text: as §1, §2, §3, §4, §5

[2] = Homo sapiens, LoVo/DX, 72 h, read-out: LoVo/DX IC50 (nM), 72 h exposure, SRB, mean ± SD
[3] = Homo sapiens, A549, 72 h, read-out: A549 IC50 (nM), 72 h exposure, SRB, mean ± SD
[4] = read-out: LoVo/DX IC50, 72 h exposure, SRB, mean ± SD

SMILES	IC50 (LoVo/DX; [2])	LoVo/DX RI (LoVo/DX)	LoVo/DX SI (LoVo/DX)	IC50 (A549; [3])	A549 SI (A549)	IC50 (LoVo)	LoVo SI (LoVo)	IC50 (MCF-7)	MCF-7 SI (MCF-7)	IC50 (BALB/3T3)	SI for A549, MCF-7, and LoVo cells (span) [1]	IC50 (LoVo/DX; [4])	IC50 [1]	IC50 (A549; read-out: A549 IC50, 72 h exposure, SRB, mean ± SD)
C=CCOC(=O)NCc1cn([C@H]2CCc3cc(OC)c(OC)c(OC)c3-c3ccc(NC)c(=O)cc32)nn1 [Compound 39]	440 ± 64 nM	100	<0.1	3.3 ± 0.5 nM	2.8	4.3 ± 0.6 nM	2.1	2.6 ± 0.5 nM	3.5	9.1 ± 2.6 nM	2.1–3.9	–	–	–
CCCCc1cn([C@H]2CCc3cc(OC)c(OC)c(OC)c3-c3ccc(NC)c(=O)cc32)nn1 [Compound 7]	< 30 nM	7.4	0.4	6.4 ± 3.9 nM	1.5	3.1 ± 1.3 nM	3.2	5.4 ± 3.7 nM	1.8	9.9 ± 3.7 nM	–	23 ± 11 nM	3.1 to 6.4 nM	–
CNc1ccc2c(cc1=O)[C@@H](n1cc(CNC(=O)CCCCCl)nn1)CCc1cc(OC)c(OC)c(OC)c1-2 [Compound 32]	2800 ± 200 nM	560	<0.1	4.4 ± 1.3 nM	5.0	5 ± 0.4 nM	4.4	2.7 ± 1.1 nM	8.1	22 ± 5.6 nM	–	–	2.7 to 6.3 nM	–
CNc1ccc2c(cc1=O)[C@@H](n1cc(CN)nn1)CCc1cc(OC)c(OC)c(OC)c1-2 [Compound 8]	12000 ± 2400 nM	86	<0.1	70 ± 23 nM	5.7	140 ± 56 nM	2.9	34 ± 16 nM	11.8	400 ± 37 nM	–	–	30 to 140 nM	–
CNc1ccc2c(cc1=O)[C@@H](n1cc(CNC(=O)C(Cl)Cl)nn1)CCc1cc(OC)c(OC)c(OC)c1-2 [Compound 31]	≤ 1000 nM	270	<0.1	3.3 ± 1.1 nM	3.0	3.1 ± 1.1 nM	3.2	3 ± 1.5 nM	3.3	9.9 ± 3 nM	–	830 ± 220 nM	2.7 to 6.3 nM	–
CNc1ccc2c(cc1=O)[C@@H](n1cc(C(=O)OCc3ccc(F)cc3)nn1)CCc1cc(OC)c(OC)c(OC)c1-2 [Compound 21]	530 ± 110 nM	25	0.1	21 ± 7.7 nM	1.2	21 ± 6.4 nM	1.2	21 ± 8 nM	1.2	25 ± 5.6 nM	–	–	10 to 25 nM	–
CNc1ccc2c(cc1=O)[C@@H](n1cc(CNC(=O)c3ccccc3Cl)nn1)CCc1cc(OC)c(OC)c(OC)c1-2 [Compound 35]	≤ 1000 nM	160	<0.1	5.7 ± 2 nM	2.1	6.3 ± 3.1 nM	1.9	3.8 ± 0.4 nM	3.2	12 ± 2.9 nM	–	1000 ± 97 nM	2.7 to 6.3 nM	–
CCOC(=O)c1nnn([C@H]2CCc3cc(OC)c(OC)c(OC)c3-c3ccc(NC)c(=O)cc32)c1C(=O)OCC [Compound 22]	580 ± 120 nM	6.0	0.2	72 ± 27 nM	1.5	97 ± 24 nM	1.1	93 ± 43 nM	1.2	–	–	–	70 to 100 nM	–
CCOC(=O)NCc1cn([C@H]2CCc3cc(OC)c(OC)c(OC)c3-c3ccc(NC)c(=O)cc32)nn1 [Compound 38]	840 ± 95 nM	110	<0.1	4.8 ± 0.7 nM	2.5	7.7 ± 2.9 nM	1.6	4.2 ± 0.7 nM	2.9	12 ± 1.6 nM	–	–	–	–
CNc1ccc2c(cc1=O)[C@@H](n1cc(COC(=O)CCNC(=O)OC(C)(C)C)nn1)CCc1cc(OC)c(OC)c(OC)c1-2 [Compound 26]	700 ± 120 nM	240	<0.1	2.4 ± 0.7 nM	2.7	2.9 ± 1.2 nM	2.2	1.1 ± 0.1 nM	5.8	6.4 ± 1.4 nM	–	–	–	–
CNc1ccc2c(cc1=O)[C@@H](n1cc(COCc3ccccc3)nn1)CCc1cc(OC)c(OC)c(OC)c1-2 [Compound 17]	84 ± 42 nM	15	0.1	6.9 ± 5.3 nM	1.6	5.7 ± 4.9 nM	1.9	6.1 ± 4.8 nM	1.8	11 ± 7.8 nM	–	–	–	–
CNc1ccc2c(cc1=O)[C@@H](n1cc(CNC(=O)OCC(Cl)(Cl)Cl)nn1)CCc1cc(OC)c(OC)c(OC)c1-2 [Compound 42]	470 ± 300 nM	120	<0.1	1.2 to 1.9 nM	1.4	3.8 ± 4.2 nM	0.7	2.5 ± 1.8 nM	1.1	2.7 ± 2.4 nM	–	–	–	1.9 ± 2.9 nM
